{
  "source": "patent US6372749B1",
  "about": "“Pyrazolo[1,5-a]pyrimidine derivatives” (Otsuka Pharmaceutical Factory, Inc., priority 1998, dated 2002)",
  "key": {"S.D. rats": {"tested_on": "S.D. rats", "test": "Recovery of pain threshold after substance P injection (Randall-Sellitto method)", "format": "in vivo", "settings": "male S.D. rats, oral 5% gum arabic suspension 10 ml/kg, substance P 25 ng/0.1 ml s.c. in left hind paw", "experimental": "Using 6-week-old male S.D. rats (7 rats in each group), the pain threshold of each rat's left hind paw plantar was measured using an Analgesy-Meter (product of Unicom) in accordance with the Randall-Sellitto method [Randall, L. O. and Sellitto, J. J., Arch. Int. Pharmacodyn., 111, 409 (1957)]. The value thus obtained was termed “pre-value”.\nOne hour after the measurement of the pre-value, a 5% gum arabic suspension containing the compound of the invention was orally administered to the rats of the test group in an amount of 10 ml/kg, whereas a 5% gum arabic suspension (not containing the compound of the invention) was orally administered to the rats of the control group in an amount of 10 ml/kg.\nOne hour later, a physiological saline solution containing substance P (25 ng/0.1 ml) was subcutaneously injected into the left hind paw plantar of each rat.\nThe pain threshold of each rat's left hind paw was measured in the same manner as above at predetermined time intervals from the substance P injection. The measured value was termed “post-value”.\nThe recovery (%) of the pain threshold was calculated from the post-values and the pre-values of the test group and the control group, by means of the following formula: [formula]"}, "[1]": {"settings": "time of measurement 60 minutes later"}},
  "data": [
    {"smiles": "CCCCc1cc(/C=C/c2cc(OC)c(OC)c(OC)c2)n2nccc2n1", "note": "[Example 1, (E)-5-n-butyl-7-[2-(3,4,5-trimethoxyphenyl)ethenyl]pyrazolo[1,5-a]pyrimidine]", "values": [
      {"measurement": "Recovery (%) of the pain threshold (the highest recovery %)", "setting": "S.D. rats; [1]", "value": 47.8, "unit": "%"}
    ]},
    {"smiles": "CCCCc1cc(/C=C/c2ccc(Cl)cc2)n2nccc2n1", "note": "[Example 8, (E)-5-n-butyl-7-[2-(4-chlorophenyl)ethenyl]pyrazolo[1,5-a]pyrimidine]", "values": [
      {"measurement": "Recovery (%) of the pain threshold (the highest recovery %)", "setting": "S.D. rats; time of measurement 30 minutes later", "value": 36.2, "unit": "%"}
    ]},
    {"smiles": "CCCCc1cc(/C(=C/c2cc(OC)c(OC)c(OC)c2)SC)n2nccc2n1", "note": "[Example 12, (Z)-5-n-butyl-7-[1-methylthio-2-(3,4,5-trimethoxyphenyl)ethenyl]pyrazolo[1,5-a]pyrimidine]", "values": [
      {"measurement": "Recovery (%) of the pain threshold (the highest recovery %)", "setting": "S.D. rats; [1]", "value": 41.5, "unit": "%"}
    ]},
    {"smiles": "CCCCc1cc(/C(=C\\c2cc(OC)c(OC)c(OC)c2)C(=O)O)n2nccc2n1", "note": "[Example 40, (E) 2-(5-n-butylpyrazolo[1,5-a]pyrimidin-7-yl)-3-(3,4,5-trimethoxyphenyl)acrylic Acid]", "values": [
      {"measurement": "Recovery (%) of the pain threshold (the highest recovery %)", "setting": "S.D. rats; [1]", "value": 47.2, "unit": "%"}
    ]},
    {"smiles": "CCCCc1cc(/C(=C\\c2cc(OC)c(O)c(OC)c2)C(=O)O)n2nccc2n1", "note": "[Example 109, (E) 2-(5-n-butylpyrazolo[1,5-a]pyrimidin-7-yl)-3-(4-hydroxy-3,5-dimethoxyphenyl)acrylic acid]", "values": [
      {"measurement": "Recovery (%) of the pain threshold (the highest recovery %)", "setting": "S.D. rats; [1]", "value": 52.1, "unit": "%"},
      {"measurement": "melting point", "value": "> 152 °C (dec.)"}
    ]}
  ]
}
